Some test systems named below: UACC-257; HCT-15; HCT-116; HT-29; NCI-H226; MCF7; PC-3; OVCAR-4; SF-295; OVCAR-3; T47D; U-251; DU-145; 786-0; K562; NCI-H460.
Common to all, as to assay: NCI-60 cell line screen, 48 h

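96-well plates; 48 h exposure; 5 concentrations. Endpoints by linear interpolation between flanking doses. Not reached: highest tested concentration assigned. Here, GI50 denotes the concentration required for 50% inhibition of growth.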 Active and inactive are the calls of the source. No stated cut-off is given here; in the data, active = GI50 up to about 1.1 µM and inactive = higher.

Consider `CCN(CC)CCC(=O)c1ccc(Oc2ccc(F)cc2)cc1`, for which the GI50 is 17.8 µM (inactive) with UACC-257; 18.2 µM with HCT-15; 16.6 µM (inactive) with HCT-116; 19.8 µM (inactive) in the test with HT-29; > 100 µM (inactive) in the test with NCI-H226; 17.9 µM (inactive) in the test with MCF7. The GI50 in the test with PC-3 is 24 µM (inactive); in the test on OVCAR-4 it was 39.4 µM (inactive); in the test on SF-295, 39.4 µM (inactive); in the test on OVCAR-3, 17.1 µM (inactive); in the test with T47D it was 20 µM (inactive); with U-251, 17.1 µM (inactive). The results for the GI50 in the test on DU-145, with 786-0 and with K562 were 23.8 µM (inactive), 14.8 µM (inactive) and 38.3 µM (inactive), respectively.

On to `O=C1c2c[nH]nc2C(c2ccccc2)N1c1ccccc1` (centres undefined), for which the GI50 was > 10 µM (inactive) in the test on UACC-257; greater than 10 µM in the test on HCT-15; > 10 µM (inactive) with HCT-116; > 10 µM (inactive) in the test on HT-29; > 10 µM (inactive) with NCI-H226; > 10 µM (inactive) in the test on MCF7. Further, the GI50 in the test with PC-3, in the test on OVCAR-4, with SF-295, with OVCAR-3, with T47D and with U-251 was > 10 µM (inactive) throughout. Moreover, the GI50 in the test on DU-145, in the test with 786-0 and in the test on NCI-H460 was > 10 µM (inactive) each time.

As to `COc1ccc2[nH]c3c([N+](=O)[O-])ccc(Cl)c3c(=O)c2c1`, the GI50 is 11.5 µM (inactive) in the test with UACC-257; 14.2 µM in the test on HCT-15; 13.7 µM (inactive) in the test on HCT-116; 16.3 µM (inactive) in the test with HT-29; 34.4 µM (inactive) in the test with NCI-H226; 25.1 µM (inactive) in the test on MCF7. Also, the GI50 in the test with PC-3 was 22.5 µM (inactive); in the test on OVCAR-4, 15.4 µM (inactive); in the test on SF-295, 38 µM (inactive); in the test with OVCAR-3 it was 16.8 µM (inactive); with T47D, 29.2 µM (inactive); in the test on U-251 it was 25.4 µM (inactive). Further, the GI50 with DU-145 is 47.3 µM (inactive); with 786-0 it was 16.7 µM (inactive); in the test on NCI-H460, 29 µM (inactive); with K562, 2.99 µM (inactive).

For the compound `O=C(OCc1ccccc1[N+](=O)[O-])N1c2ccccc2[C@@]23O[C@]24CCC[C@H]3C#C/C=C\C#C[C@H]14`, the GI50 in the test on UACC-257 was > 100 µM (inactive); in the test with HCT-15 it was 17 µM; in the test on HCT-116, 41.5 µM (inactive); with HT-29 it was 38.1 µM (inactive); in the test with NCI-H226 it was > 100 µM (inactive); with MCF7, 0.875 µM (active). Also, the GI50 with PC-3 is 14.8 µM (inactive); in the test on OVCAR-4 it was > 100 µM (inactive); in the test on SF-295 it was 7.01 µM (inactive); in the test with OVCAR-3, > 100 µM (inactive); with T47D, 73.8 µM (inactive); in the test with U-251 it was 11 µM (inactive). For the same compound, the GI50 in the test on DU-145 is > 100 µM (inactive); in the test on 786-0 it was 15.7 µM (inactive); with NCI-H460, 0.362 µM (active); in the test with K562, 5.83 µM (inactive).

Take `Cc1cc(-c2nc3cc(F)ccc3s2)ccc1NC(=O)[C@@H](N)CCCCN`: the GI50 in the test with UACC-257 is 5.71 µM (inactive); in the test on HCT-15 it was 4.33 µM; in the test with HCT-116, 2 µM (inactive); in the test on HT-29, 2.82 µM (inactive); in the test on NCI-H226, 0.134 µM (active); with MCF7, 0.01 µM (active). Further, the GI50 in the test on PC-3 was 8.05 µM (inactive); in the test with OVCAR-4 it was 2.12 µM (inactive); in the test with SF-295 it was 2.65 µM (inactive); in the test with OVCAR-3, 6.11 µM (inactive); in the test on T47D it was < 0.0138 µM (active); with U-251 it was 1.88 µM (inactive). Also, the GI50 is 13.9 µM (inactive) with DU-145, 2.69 µM (inactive) in the test on 786-0, 0.132 µM (active) in the test with NCI-H460 and 2.17 µM (inactive) in the test with K562.

Turning to `CC(=O)Nc1cc2ccc(=O)oc2cc1Cl`, the GI50 was > 100 µM (inactive) in the test with UACC-257; greater than 100 µM in the test with HCT-15; > 100 µM (inactive) with HCT-116; > 100 µM (inactive) with HT-29; > 100 µM (inactive) with NCI-H226; > 100 µM (inactive) in the test with MCF7. In addition, the GI50 with PC-3, in the test on OVCAR-4, with SF-295, with OVCAR-3, in the test with T47D and in the test with U-251 was > 100 µM (inactive) throughout. The GI50 in the test with DU-145, in the test with 786-0, with NCI-H460 and in the test on K562 was > 100 µM (inactive) in each case.

Regarding `COC1=C(N2CC2)C(=O)c2nc3n(c2C1=O)CCC3`, the GI50 in the test on HCT-15 was 0.368 µM; in the test with HCT-116 it was 0.434 µM (active); in the test with HT-29 it was 0.352 µM (active); with NCI-H226, 1.87 µM (inactive); with MCF7, 0.532 µM (active); in the test with PC-3, 0.695 µM (active). Further, the GI50 in the test with OVCAR-4 is 0.22 µM (active); in the test on SF-295 it was 0.815 µM (active); in the test with OVCAR-3 it was 0.393 µM (active); with T47D it was 1.79 µM (inactive); in the test with U-251 it was 1.4 µM (inactive); in the test with DU-145 it was 0.372 µM (active). The GI50 was 0.321 µM (active) in the test with 786-0, 0.45 µM (active) with NCI-H460 and 0.271 µM (active) in the test with K562.

As to `O=C1CNCCCN2CCN(CCCNCC(=O)Nc3ccc(cc3)S(=O)(=O)c3ccc(cc3)NC(=O)CNCCCN3CCN(CCCNCC(=O)Nc4ccc(cc4)S(=O)(=O)c4ccc(cc4)N1)CC3)CC2`, the GI50 in the test with UACC-257 was 17 µM (inactive); in the test on HCT-15, 21 µM; in the test with HCT-116, 21.5 µM (inactive); with HT-29, 27.2 µM (inactive); in the test on NCI-H226 it was > 47.1 µM (inactive); in the test with MCF7, 46.1 µM (inactive). Also, the GI50 in the test on PC-3 was 42.3 µM (inactive); with OVCAR-4, > 47.9 µM (inactive); in the test with SF-295, 20.5 µM (inactive); in the test on OVCAR-3 it was 41.7 µM (inactive); in the test on T47D, 27.9 µM (inactive); in the test on U-251, 24.5 µM (inactive). Further, the GI50 in the test on DU-145 was 41.4 µM (inactive); in the test with 786-0, 16.3 µM (inactive); in the test on NCI-H460, 10.4 µM (inactive); in the test with K562 it was 22.3 µM (inactive).

Turning to `CNC(=O)CCCN(C)C(=O)CCCCC(=O)N(C)C`, the GI50 with UACC-257 is > 59.3 µM (inactive); in the test with HCT-15, greater than 60.4 µM; in the test with HCT-116, > 57.5 µM (inactive); with HT-29, > 57.1 µM (inactive); in the test on NCI-H226, > 67.8 µM (inactive); in the test with MCF7, > 62.2 µM (inactive). In addition, the GI50 with PC-3 is > 54.3 µM (inactive); in the test with OVCAR-4 it was > 100 µM (inactive); with SF-295, > 59.2 µM (inactive); in the test with OVCAR-3, > 92.3 µM (inactive); in the test with T47D it was 35 µM (inactive); in the test with U-251, > 58.2 µM (inactive). Further, the GI50 was > 58.5 µM (inactive) in the test with DU-145, > 55.3 µM (inactive) with 786-0, > 56 µM (inactive) in the test on NCI-H460 and > 55.2 µM (inactive) in the test on K562.

Regarding `OCCN(CCO)c1ccc2c(c1)Cc1ccccc1-2`, the GI50 was 31 µM (inactive) in the test on UACC-257; 43.4 µM with HCT-15; 21 µM (inactive) with HCT-116; 18.8 µM (inactive) with HT-29; 44.4 µM (inactive) with NCI-H226; 24.5 µM (inactive) in the test with MCF7. Further, the GI50 is 42.6 µM (inactive) in the test on PC-3; 57.1 µM (inactive) with OVCAR-4; 88.3 µM (inactive) in the test with SF-295; 17 µM (inactive) in the test with OVCAR-3; 13.5 µM (inactive) with T47D; 49.3 µM (inactive) in the test on U-251. Also, the GI50 with DU-145 is 17.7 µM (inactive); in the test with 786-0, > 100 µM (inactive); with NCI-H460 it was 19.7 µM (inactive); with K562, 34 µM (inactive).

For `C#CCOCCCC(=O)O`, the GI50 with UACC-257 is > 100 µM (inactive); with HCT-15 it was greater than 100 µM; in the test on HCT-116, > 100 µM (inactive); with HT-29, > 100 µM (inactive); with NCI-H226, > 100 µM (inactive); with MCF7 it was > 100 µM (inactive). The GI50 in the test with PC-3, in the test on OVCAR-4, in the test with SF-295, with OVCAR-3, in the test with T47D and in the test on U-251 was > 100 µM (inactive) throughout. Moreover, the GI50 in the test on DU-145, in the test on 786-0, in the test with NCI-H460 and in the test on K562 was > 100 µM (inactive) throughout.

For `O=[N+]([O-])c1cc([As](Br)c2ccc(O)c([N+](=O)[O-])c2)ccc1O`, the GI50 in the test on UACC-257 is 1.69 µM (inactive); with HCT-15, 1.99 µM; in the test with HCT-116, 2 µM (inactive); with HT-29 it was 3.43 µM (inactive); in the test on NCI-H226, 1.5 µM (inactive); in the test on MCF7, 1.27 µM (inactive). Moreover, the GI50 was 1.95 µM (inactive) in the test on PC-3; 1.66 µM (inactive) with OVCAR-4; 1.8 µM (inactive) with SF-295; 1.81 µM (inactive) in the test with OVCAR-3; 0.204 µM (active) in the test with T47D; 1.82 µM (inactive) in the test on U-251. In addition, the GI50 in the test with DU-145 is 2 µM (inactive); in the test on 786-0 it was 1.44 µM (inactive); with NCI-H460, 3.12 µM (inactive); in the test with K562 it was 0.462 µM (active).

Turning to `c1cc2nsnc2c2c[nH]cc12`, the GI50 in the test with UACC-257 is > 100 µM (inactive); in the test with HCT-15, 99.5 µM; in the test on HCT-116 it was > 100 µM (inactive); in the test on HT-29, > 100 µM (inactive); in the test on NCI-H226, 99.5 µM (inactive); in the test on MCF7 it was 34.7 µM (inactive). The GI50 was 45.1 µM (inactive) in the test on PC-3; > 100 µM (inactive) in the test with OVCAR-4; > 100 µM (inactive) with SF-295; > 100 µM (inactive) in the test with OVCAR-3; 21 µM (inactive) with T47D; > 100 µM (inactive) in the test on DU-145. Moreover, the GI50 was > 100 µM (inactive) in the test with 786-0, 86.3 µM (inactive) in the test on NCI-H460 and 49.1 µM (inactive) with K562.

Values taken from ChEMBL document CHEMBL1201862, “PubChem BioAssay data set” (2004).
